According to ChEMBL document CHEMBL1201862, “PubChem BioAssay data set” (2004):
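In this assay, cells in 96-well plates receive the compound at five concentrations for 48 hours. Endpoints are linearly interpolated between the surrounding concentrations. Abbreviation: GI50, concentration required for 50% inhibition of growth.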 The source made the active and inactive calls. Rule as the data show it: active = GI50 up to about 1.1 µM and inactive = higher.

Legend:
Experiment in all cases: NCI tumour cell line growth inhibition, 48 h
[1] = tested on: COLO 205
[2] = tested on: SW-620
[3] = tested on: IGROV-1
[4] = tested on: M19-MEL
[5] = tested on: KM12
[6] = tested on: DMS-273
[7] = tested on: HCT-116
[8] = tested on: NCI-H23
[9] = tested on: HT-29
[10] = tested on: CAKI-1
[11] = tested on: SK-MEL-28
[12] = tested on: DMS-114
[13] = tested on: OVCAR-5
[14] = tested on: MOLT-4
[15] = tested on: SNB-75
[16] = tested on: SK-MEL-5
[17] = tested on: NCI-H460
[18] = tested on: SNB-19
[19] = tested on: UACC-257
[20] = tested on: A498
[21] = tested on: SN12C
[22] = tested on: SF-295
[23] = tested on: M14
[24] = tested on: SNB-78
[25] = tested on: A549
[26] = tested on: SK-OV-3
[27] = tested on: RPMI-8226
[28] = tested on: HOP-62
[29] = tested on: 786-0
[30] = tested on: OVCAR-4
[31] = tested on: SF-539
[32] = tested on: KM-20L2
[33] = tested on: UO-31
[34] = tested on: SF-268
[35] = tested on: K562
[36] = tested on: UACC-62
[37] = tested on: NCI-H226
[38] = tested on: NCI-H522
[39] = tested on: EKVX
[40] = tested on: HL-60
[41] = tested on: LOX IMVI
[42] = tested on: U-251
[43] = tested on: CCRF-CEM
[44] = tested on: ACHN
[45] = tested on: TK-10
[46] = tested on: SR
[47] = tested on: SK-MEL-2
[48] = tested on: HCC 2998
[49] = tested on: OVCAR-8
[50] = tested on: HCT-15
[51] = tested on: Malme-3M
[52] = tested on: RXF 393
[53] = tested on: OVCAR-3
[54] = tested on: LXFL 529
[55] = tested on: HOP-92

With CSc1n/c(=N\c2ccccc2)sn1-c1ccccc1 the GI50 [1] was 7.73 µM (inactive), the GI50 [2] was 12.3 µM (inactive) and the GI50 [3] was 4.65 µM (inactive). For the same compound, the GI50 [4] was 5.58 µM (inactive), the GI50 [5] was 17.3 µM (inactive) and the GI50 [6] was 8.83 µM (inactive). The GI50 [7] was 8.43 µM (inactive), the GI50 [8] was 14.1 µM (inactive) and the GI50 [9] was 3.52 µM (inactive). The GI50 [10] was 13.5 µM (inactive), the GI50 [11] was 14.1 µM (inactive) and the GI50 [12] was 3.15 µM (inactive). The GI50 [13] was 17.3 µM (inactive), the GI50 [14] was 11.2 µM (inactive) and the GI50 [15] was 27.2 µM (inactive). For the same compound, the GI50 [16] was 11.2 µM (inactive), the GI50 [17] was 4.79 µM (inactive) and the GI50 [18] was 17.1 µM (inactive). For the same compound, the GI50 [19] was 20.3 µM (inactive), the GI50 [20] was 18.7 µM (inactive) and the GI50 [21] was 15.6 µM (inactive). For the same compound, the GI50 [22] was 21.5 µM (inactive), the GI50 [23] was 10.7 µM (inactive) and the GI50 [24] was 20.7 µM (inactive). For the same compound, the GI50 [25] was 16.6 µM (inactive), the GI50 [26] was 36.6 µM (inactive) and the GI50 [27] was 5.45 µM (inactive). The GI50 [28] was 15.6 µM (inactive), the GI50 [29] was 16.6 µM (inactive) and the GI50 [30] was 5.3 µM (inactive). The GI50 [31] was 18.6 µM (inactive), the GI50 [32] was 13.6 µM (inactive) and the GI50 [33] was 17.3 µM (inactive). For the same compound, the GI50 [34] was 19.6 µM (inactive), the GI50 [35] was 3.24 µM (inactive) and the GI50 [36] was 4.76 µM (inactive). For the same compound, the GI50 [37] was 15.5 µM (inactive), the GI50 [38] was 2.71 µM (inactive) and the GI50 [39] was 27.5 µM (inactive). For the same compound, the GI50 [40] was 3.74 µM (inactive), the GI50 [41] was 16.6 µM (inactive) and the GI50 [42] was 14.9 µM (inactive). The GI50 [43] was 11.2 µM (inactive), the GI50 [44] was 18.9 µM (inactive) and the GI50 [45] was 26.7 µM (inactive). The GI50 [46] was 17.8 µM (inactive), the GI50 [47] was 17.1 µM (inactive) and the GI50 [48] was 17.9 µM (inactive). The GI50 [49] was 21.7 µM (inactive), the GI50 [50] was 13.8 µM and the GI50 [51] was 24.3 µM (inactive). The GI50 [52] was 16.8 µM (inactive) and the GI50 [53] was 18 µM (inactive).

With CCc1c(O)c(O)c(C(C)=O)c2c(O)c(-c3c(C)cc4c(CC)c(O)c(O)c(C(C)=O)c4c3O)c(C)cc12 the GI50 [1] was 6.79 µM (inactive), the GI50 [3] was 5.52 µM (inactive) and the GI50 [4] was 11.2 µM (inactive). The GI50 [5] was 3.74 µM (inactive), the GI50 [7] was 4.17 µM (inactive) and the GI50 [8] was 2.82 µM (inactive). For the same compound, the GI50 [9] was 5.15 µM (inactive), the GI50 [11] was 10.9 µM (inactive) and the GI50 [12] was 5.35 µM (inactive). The GI50 [13] was 18.9 µM (inactive), the GI50 [15] was 14.1 µM (inactive) and the GI50 [17] was 7.73 µM (inactive). The GI50 [18] was 7.67 µM (inactive), the GI50 [19] was 11.1 µM (inactive) and the GI50 [22] was 3.03 µM (inactive). The GI50 [23] was 8.75 µM (inactive), the GI50 [24] was 2.9 µM (inactive) and the GI50 [26] was > 10 µM (inactive). For the same compound, the GI50 [27] was 3.97 µM (inactive), the GI50 [54] was 4.56 µM (inactive) and the GI50 [28] was 13.7 µM (inactive). For the same compound, the GI50 [30] was 11.2 µM (inactive), the GI50 [31] was 9.04 µM (inactive) and the GI50 [32] was 4.69 µM (inactive). For the same compound, the GI50 [33] was 6.49 µM (inactive), the GI50 [55] was 2.78 µM (inactive) and the GI50 [34] was 11 µM (inactive). For the same compound, the GI50 [35] was 2.62 µM (inactive), the GI50 [36] was 7.21 µM (inactive) and the GI50 [38] was 2.92 µM (inactive). The GI50 [40] was 3.08 µM (inactive), the GI50 [42] was 8.77 µM (inactive) and the GI50 [43] was 2.7 µM (inactive). For the same compound, the GI50 [44] was 12 µM (inactive), the GI50 [46] was 38.3 µM (inactive) and the GI50 [47] was 7.53 µM (inactive). For the same compound, the GI50 [51] was 16.7 µM (inactive), the GI50 [52] was 6.85 µM (inactive) and the GI50 [53] was 5.05 µM (inactive).
